In brackets after ≈: the same amount, converted by molar mass. Where two headings read alike, the source gives them in different places.
How the values were obtained:
Bifidobacterium longum = test: Broth microdilution MIC, anaerobic bacteria (Example 1); format: cell-based; conditions: Bifidobacterium longum
Bacteroides fragilis [1] = test: as above; format: cell-based; conditions: Bacteroides fragilis
[2] = Analysis of intestinal contents, plasma and brains after oral CBD or CBD-glycosides (Example 3); format: in vivo; conditions: mouse, oral gavage; 2 hours; data not shown
Procedure: In order to investigate the metabolism and decoupling of CBD-glycosides in the large intestine, an aqueous solution of a mixture of CBD-glycosides was administered to a mouse by oral gavage. As a control, a solution of CBD in cremophor, ethanol, and saline was administered to a second mouse. The animals were each sacrificed at 2 hours. Following termination and tissue harvest, the intestinal contents were then extracted and analyzed by C18 reverse phase HPLC. The mice employed in this example were eight week old male Swiss mice fasted for 12 hours prior to administration of the solutions.
The resulting extracts were analyzed by LCMS performed using a Shimadzu LC-MS 2010 EV. Electrospray ionization (ESI) was performed in negative mode. The column was a Silia Chrom XDB C18 5 um, 150 A, 4.6×50 mm. The method was 12 min 5 to 95 H2O:ACN. Acetic acid and formic acid were used as sample additives during analysis, and the injection volume was 20 μl.

[3] = test system: evaluated yeast and fungal isolates; test: Broth microdilution MIC, summary (Example 4); format: cell-based
[4] = test system: Enterococcus faecalis (VSE); test: Broth microdilution MIC, aerobic bacteria (Example 4); format: cell-based; conditions: ATCC29212
Clostridium difficile = test: Broth microdilution MIC, anaerobic bacteria (Example 4); format: cell-based; conditions: Clostridioides difficile
Streptococcus pneumoniae = test: Broth microdilution MIC, aerobic bacteria (Example 4); format: cell-based; conditions: ATCC49619
E. faecalis ATCC 29212 = test: MIC/MBC testing (Example 5); format: cell-based
[5] = test system: Staphylococcus aureus (MSSA); test: Broth microdilution MIC, aerobic bacteria (Example 1); format: cell-based; conditions: Staphylococcus aureus, ATCC 29213 / MSSA, isolate MMX 100 (ATCC 29213), read-out: MIC
[6] = test system: Staphylococcus aureus (MRSA); test: microbe, parasite or virus in culture; format: cell-based
Anaerobic Bacteria = test: Broth microdilution MIC, text summary (Example 1); format: cell-based
C. difficile = test: MIC/MBC testing (Example 5); format: cell-based; conditions: for MBC:MIC: ratios of 1-4 are indicative of bactericidal activity; for MBC / MIC: Clostridioides difficile
Candida parapsilosis = test: Broth microdilution MIC, yeast and fungi (Example 1); format: cell-based; conditions: Lodderomyces parapsilosis, ATCC22019, Example 1, isolate MMX 2323 (ATCC 22019)
Bacteroides fragilis [7] = test: Broth microdilution MIC, anaerobic bacteria (Example 4); format: cell-based; conditions: ATCC25285, isolate MMX 123 (ATCC 25285)
S. pneumoniae ATCC 49619 = test: MIC/MBC testing (Example 5); format: cell-based
[8] = test system: evaluated yeast and fungal isolates; test: Broth microdilution MIC, text summary (Example 1); format: cell-based
B. bifidum MMX 3965 = test: MIC/MBC testing (Example 5); format: cell-based
[9] = test system: Enterococcus faecalis (VRE); test: microbe, parasite or virus in culture; format: cell-based; conditions: Enterococcus faecalis, VRE
Streptococcus pyogenes = test: Broth microdilution MIC, aerobic bacteria (Example 1); format: cell-based; conditions: Streptococcus pyogenes, isolate MMX 404, read-out: MIC
Escherichia coli [10] = test: as above; format: cell-based; conditions: Escherichia coli, ATCC25922, isolate MMX 102 (ATCC 25922), read-out: MIC
Escherichia coli [11] = test: Broth microdilution MIC, aerobic bacteria (Example 4); format: cell-based; conditions: ATCC25922
Bifidobacterium bifidum [12] = test: Broth microdilution MIC, anaerobic bacteria (Example 1); format: cell-based; conditions: Bifidobacterium bifidum
Bifidobacterium bifidum [13] = test: Broth microdilution MIC, anaerobic bacteria (Example 4); format: cell-based; conditions: isolate MMX 3965
Acinetobacter baumannii = test: Broth microdilution MIC, aerobic bacteria (Example 1); format: cell-based
gram-negative aerobes = test: Broth microdilution MIC, text summary (Example 1); format: cell-based
[14] = test system: Staphylococcus aureus (MSSA); test: Broth microdilution MIC, aerobic bacteria (Example 4); format: cell-based; conditions: ATCC 29213 / MSSA
B. longum MMX 3968 = test: MIC/MBC testing (Example 5); format: cell-based
[15] = test system: Enterococcus faecalis (VSE); test: Broth microdilution MIC, aerobic bacteria (Example 1); format: cell-based; conditions: Enterococcus faecalis, ATCC29212, isolate MMX 101 (ATCC 29212), read-out: MIC
[16] = Example 1 summary of findings, read-out: inhibits the growth (IC50 values)
[17] = Enterococcus faecalis, ATCC29212
[18] = ratios of 1-4 are indicative of bactericidal activity
[19] = ATCC700057, Example 5, ATCC 700057
[20] = Streptococcus pneumoniae, ATCC49619
[21] = Bifidobacterium bifidum, MMX3965
[22] = Bifidobacterium longum, MMX3968

Q: Which results are given for C=C(C)[C@@H]1CCC(C)=C[C@H]1c1c(O)cc(CCCCC)cc1O [CBD, cannabidiol]?
A: MIC (Bifidobacterium longum; Example 1, isolate MMX 3968, read-out: MIC): 32 µg/mL (≈ 102 µM); IC50 (Bifidobacterium longum; [16]): 32 µg/mL (≈ 102 µM); MIC (Bacteroides fragilis [1]; ATCC5285): 32 µg/mL (≈ 102 µM); IC50 (Bacteroides fragilis [1]; Example 1 summary of findings, read-out: inhibits the growth (IC50)): 32 µg/mL (≈ 102 µM); presence of CBD in plasma and brains (HPLC) [2]: CBD was only present in the control animal that received CBD aglycone; activity against yeast and fungal isolates [3]: Neither THC nor CBD were active; MIC [4]: 2 µg/mL (≈ 6.36 µM); MIC (Clostridium difficile; ATCC700057, Example 4, isolate MMX 4381 (ATCC 700057)): 64 µg/mL (≈ 204 µM); MIC (Clostridium difficile; Example 4, isolate MMX 8330): 64 µg/mL (≈ 204 µM); MIC (Clostridium difficile; Example 4, isolate MMX 8333): 64 µg/mL (≈ 204 µM); MIC (Streptococcus pneumoniae): 4 µg/mL (≈ 12.7 µM); MBC (E. faecalis ATCC 29212; [17]): 2 µg/mL (≈ 6.36 µM); MIC (E. faecalis ATCC 29212; [17]): 2 µg/mL (≈ 6.36 µM); MBC:MIC (E. faecalis ATCC 29212; [18]): 1; MIC [5]: 2 µg/mL (≈ 6.36 µM); MIC [6]: 2 µg/mL (≈ 6.36 µM); MICs (range over anaerobic bacteria) (Anaerobic Bacteria): 2 to 64 µg/mL; MBC:MIC (C. difficile; ATCC 700057): 2; MBC (C. difficile; [19]): 32 µg/mL (≈ 102 µM); MIC (C. difficile; [19]): 16 µg/mL (≈ 50.9 µM); MBC (C. difficile; Example 5, MMX 8330): 32 µg/mL (≈ 102 µM); MIC (C. difficile; Example 5, MMX 8330): 32 µg/mL (≈ 102 µM); MBC (C. difficile; Example 5, MMX 8333): 32 µg/mL (≈ 102 µM); MIC (C. difficile; Example 5, MMX 8333): 16 µg/mL (≈ 50.9 µM); MBC:MIC (C. difficile; MMX 8330): 1; MBC:MIC (C. difficile; MMX 8333): 2; MIC (Candida parapsilosis; 24 hr, read-out: MIC at 24 hr): > 256 µg/mL; MIC (Candida parapsilosis; 48 hr, read-out: MIC at 48 hr): > 256 µg/mL; MIC (Bacteroides fragilis [7]): > 128 µg/mL; MBC (S. pneumoniae ATCC 49619; [20]): 4 µg/mL (≈ 12.7 µM); MIC (S. pneumoniae ATCC 49619; [20]): 1 µg/mL (≈ 3.18 µM); MBC:MIC (S. pneumoniae ATCC 49619; [18]): 4; activity against yeast and fungal isolates [8]: Neither the cannabinoid prodrugs or CBD were active; MBC (B. bifidum MMX 3965; [21]): 32 µg/mL (≈ 102 µM); MIC (B. bifidum MMX 3965; [21]): 16 µg/mL (≈ 50.9 µM); MBC:MIC (B. bifidum MMX 3965; [18]): 2; MIC [9]: 2 µg/mL (≈ 6.36 µM); IC50 ([9]; read-out: inhibits the growth (IC50)): 2 µg/mL (≈ 6.36 µM); MIC (Streptococcus pyogenes): 16 µg/mL (≈ 50.9 µM); MIC (Escherichia coli [10]): > 256 µg/mL; MIC (Escherichia coli [11]): > 128 µg/mL; MIC (Bifidobacterium bifidum [12]; Example 1, isolate MMX 3965, read-out: MIC): 2 µg/mL (≈ 6.36 µM); IC50 (Bifidobacterium bifidum [12]; [16]): 2 µg/mL (≈ 6.36 µM); MIC (Bifidobacterium bifidum [13]): 8 µg/mL (≈ 25.4 µM); MIC (Acinetobacter baumannii; Acinetobacter baumannii): > 256 µg/mL; effect on the gram-negative pathogen (Acinetobacter baumannii; Example 1 summary of findings, Acinetobacter): did not have any effect; activity against gram-negative aerobic bacteria (gram-negative aerobes): inactive; MIC [14]: 2 µg/mL (≈ 6.36 µM); MBC (B. longum MMX 3968; [22]): 64 µg/mL (≈ 204 µM); MIC (B. longum MMX 3968; [22]): 16 µg/mL (≈ 50.9 µM); MBC:MIC (B. longum MMX 3968; [18]): 4; MIC [15]: 2 µg/mL (≈ 6.36 µM)

— US11207291B2, “Antimicrobial compositions comprising cannabinoids and methods of using the same” (Graphium Biosciences, Inc., priority 2017, dated 2021)
